We go through 15 compounds from US11851406B2, “Positive allosteric modulators of the muscarinic acetylcholine receptor M1” (Vanderbilt University, priority 2018, dated 2023).

For assay [1], the target named is T1, human mAChR M1 (Homo sapiens, UniProt P11229).
T1 sequence (P11229 1-460): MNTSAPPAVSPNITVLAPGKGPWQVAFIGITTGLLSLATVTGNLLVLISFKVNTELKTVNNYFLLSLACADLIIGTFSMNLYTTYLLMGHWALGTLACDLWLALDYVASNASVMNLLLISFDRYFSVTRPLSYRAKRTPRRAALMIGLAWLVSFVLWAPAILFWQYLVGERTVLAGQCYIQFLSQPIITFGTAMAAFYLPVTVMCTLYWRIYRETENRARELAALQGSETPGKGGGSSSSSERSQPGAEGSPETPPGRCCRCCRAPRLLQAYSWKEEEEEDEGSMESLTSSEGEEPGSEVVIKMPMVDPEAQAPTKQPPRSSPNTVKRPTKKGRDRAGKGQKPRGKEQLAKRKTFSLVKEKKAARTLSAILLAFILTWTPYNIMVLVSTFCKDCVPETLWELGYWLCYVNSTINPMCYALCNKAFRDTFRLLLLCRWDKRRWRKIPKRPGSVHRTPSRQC
As to the kind of experiment: mAChR M1 cell-based functional assay (calcium mobilization), PAM activity: increase in the EC20 acetylcholine response. The following applies: CHO-K1 cells expressing hM1; calcium flux (Fluo-4); potentiation of EC20 acetylcholine response. The source says: (§1) Chinese hamster ovary (CHO-K1) cells stably expressing rat (r)M1 were purchased from the American Type Culture Collection and cultured according to their indicated protocol. CHO cells stably expressing human (h)M2, hM3, and hM5 were described previously (Levey, et al., 1991); hM1 and hM4 cDNAs were purchased from Missouri S&T cDNA Resource; rM4 cDNA was provided by T. I. Bonner (National Institutes of Health, Bethesda, Md.). rM2 and rM3 were cloned from a rat brain cDNA library and sequence verified. hM1, rM2, rM3, hM4, and rM4 cDNAs were used to stably transfect CHO-K1 cells purchased from the American Type Culture Collection using Lipofectamine2000. To make stable rM2, hM2, rM3, hM4, and rM4 cell lines for use in calcium mobilization assays, these cells also were stably transfected with a chimeric G-protein (Gqi5) (provided by B. R. Conklin, University of California, San Francisco) using Lipofectamine 2000. rM1, hM1, rM3, hM3, rM5, and hM5 cells were grown in Ham's F-12 medium containing 10% heat-inactivated fetal bovine serum (FBS), 20 mM HEPES, and 50 μg/mL G418 sulfate. rM2-Gqi5, hM2-Gqi5, and hM4-Gqi5 cells were grown in the same medium also containing 500 μg/mL Hygromycin B. Stable rM4-Gqi5 cells were grown in DMEM containing 10% heat-inactivated FBS, 20 mM HEPES, 400 μg/mL G418 sulfate, and 500 μg/mL Hygromycin B.
(§2) For high throughput measurement of agonist-evoked increases in intracellular calcium, CHO-K1 cells stably expressing muscarinic receptors were plated in growth medium lacking G418 and hygromycin at 15,000 cells/20 μL/well in Greiner 384-well black-walled, tissue culture (TC)-treated, clear-bottom plates (VWR). Cells were incubated overnight at 37° C. and 5% CO2. The next day, cells were washed using an ELX 405 (BioTek) with four washes (80 μL) of assay buffer then aspirated to 20 μL. Next, 20 μL of 16 μM Fluo-4/acetoxymethyl ester (Invitrogen, Carlsbad, Calif.) prepared as a 2.3 mM stock in DMSO and mixed in a 1:1 ratio with 10% (w/v) Pluronic F-127 and diluted in assay buffer was added to the wells and the cell plates were incubated for 50 min at 37° C. and 5% CO2. Dye was removed by washing with the ELX 405 (four 80 μL washes of assay buffer) then aspirated to 20 μL. Compound master plates were formatted in an 11 point CRC format (1:3 dilutions) in 100% DMSO with a starting concentration of 10 mM using the BRAVO liquid handler (Agilent). Test compound CRCs were then transferred to daughter plates (240 nL) using the Echo acoustic plate reformatter (Labcyte, Sunnyvale, Calif.) and then diluted into assay buffer (40 μL) to a 2× stock using a Thermo Fisher Combi (Thermo Fisher Scientific, Waltham, Mass.).
(§3) Calcium flux was measured using the Functional Drug Screening System (FDSS) 6000 (Hamamatsu Corporation, Tokyo, Japan) as an increase in the fluorescent static ratio. Compounds were applied to cells (20 μL, 2×) using the automated system of the FDSS 6000 at 4 s into the 300 s protocol and the data were collected at 1 Hz. At 144 s into the 300 s protocol, 10 μL of an EC20 concentration of the muscarinic receptor agonist acetylcholine was added (5×), followed by the addition of 12 μL an EC80 concentration of acetylcholine at the 230 s time point (5×). Agonist activity was analyzed as a concentration-dependent increase in calcium mobilization upon compound addition. Emax values for agonist activity are expressed relative to the maximum for acetylcholine. Positive allosteric modulator activity was analyzed as a concentration-dependent increase in the EC20 acetylcholine response. Antagonist activity was analyzed as a concentration-dependent decrease in the EC80 acetylcholine response. Concentration-response curves were generated using a four-parameter logistical equation in XLfit curve fitting software (IDBS, Bridgewater, N.J.) for Excel (Microsoft, Redmond, Wash.) or Prism (GraphPad Software, Inc., San Diego, Calif.).

The target in assay [2] is T1, human mAChR M1. As to the kind of experiment: mAChR M1 cell-based functional assay (calcium mobilization), agonist activity upon compound addition alone. As to conditions: CHO-K1 cells expressing hM1; for EC50: calcium mobilization upon compound addition, no acetylcholine; for Emax: compound alone, relative to the maximum for acetylcholine.
Description: as §1, §2, §3
(Calcium assays in cells follow changes in intracellular calcium, usually with a dye or a luminescent sensor.)

Structures are written as SMILES.

Consider `Cn1cc(-c2cc(Cc3ccc(-c4ccn(C)n4)cc3)cc(C(=O)N[C@H]3CCOC[C@@H]3O)n2)cn1` [Compound 39, N-((3R,4S)-3-hydroxytetrahydro-2H-pyran-4-yl)-4-(4-(1-methyl-1H-pyrazol-3-yl)benzyl)-6-(1-methyl-1H-pyrazol-4-yl)picolinamide], for which the EC50 – broadly, the concentration at which the effect is half-maximal – is 2.85 µM in assay [1] and above 10 µM in assay [2]. Also, the Emax (in general, the maximal effect, on the per cent scale that the assay sets) in assay [1] is 57%; in assay [2], below 5%.
With `Cn1cc(-c2ccc(Cc3cc(C(=O)N[C@H]4CCCC[C@@H]4O)nc(-n4cccn4)c3)cn2)cn1` [Compound 20, N-((1S,2S)-2-hydroxycyclohexyl)-4-((6-(1-methyl-1H-pyrazol-4-yl)pyridin-3-yl)methyl)-6-(1H-pyrazol-1-yl)picolinamide], in assay [1], the EC50 turned out to be 2.25 µM and the Emax stood at 61%. In addition, in assay [2], the EC50 was above 10 µM and the Emax was below 5%.
In the case of `Cc1c(Cc2ccc(-c3ccn(C)n3)nc2)cc(C(=O)N[C@H]2CCOC[C@@H]2O)nc1-n1cccn1` [Compound 44, N-((3R,4S)-3-hydroxytetrahydro-2H-pyran-4-yl)-5-methyl-4-((6-(1-methyl-1H-pyrazol-3-yl)pyridin-3-yl)methyl)-6-(1H-pyrazol-1-yl)picolinamide], in assay [1], the EC50 was 1.09 µM and the Emax was 83%. Also, in assay [2], the EC50 is at least 10 µM and the Emax amounted to 23%.
In the case of `Cn1ccc(-c2ccc(Cc3cc(C(=O)N[C@H]4CCCC[C@@H]4O)nc(-c4ccn(C)n4)c3)cc2)n1` [Compound 34, N-((1S,2S)-2-hydroxycyclohexyl)-6-(1-methyl-1H-pyrazol-3-yl)-4-(4-(1-methyl-1H-pyrazol-3-yl)benzyl)picolinamide], the EC50 was 2.02 µM in assay [1] and above 10 µM in assay [2]. Also, the Emax in assay [1] is 63%; in assay [2] it was below 5%.
The like results for `Cc1c(Cc2ccc(-c3ccn(C)n3)cc2)cc(C(=O)N[C@H]2CCC[C@@H]2O)nc1-c1ccn(C)n1` [Compound 12, N-((1S,2S)-2-hydroxycyclopentyl)-5-methyl-6-(1-methyl-1H-pyrazol-3-yl)-4-(4-(1-methyl-1H-pyrazol-3-yl)benzyl)picolinamide] were, in that order, 1.97 µM, above 10 µM, 86% and 6%.
With `Cc1nc(-c2ccc(Cc3cc(C(=O)NC4CC5(COC5)C4)nc(-n4cccn4)c3)cc2)co1` [Compound 23, 4-(4-(2-methyloxazol-4-yl)benzyl)-6-(1H-pyrazol-1-yl)-N-(2-oxaspiro[3.3]heptan-6-yl)picolinamide], the concentration for a half-maximal effect (EC50) in assay [1] was 6.25 µM; in assay [2], above 10 µM. The Emax in assay [1] is 69%; in assay [2], below 5%.
As for `Cn1ccc(-c2ccc(Cc3cc(C(=O)NC4CCOCC4)nc(-n4cccn4)c3)cc2)n1` [Compound 30, 4-(4-(1-methyl-1H-pyrazol-3-yl)benzyl)-6-(1H-pyrazol-1-yl)-N-(tetrahydro-2H-pyran-4-yl)picolinamide], the Emax in assay [1] was 65%; in assay [2] it was below 5%. For the same compound, the EC50 in assay [2] was above 10 µM.
As to `Cc1nc(-c2ccc(Cc3cc(C(=O)N[C@H]4CCOC[C@@H]4O)nc(-n4cccn4)c3)cc2)co1` [Compound 19, N-((3R,4S)-3-hydroxytetrahydro-2H-pyran-4-yl)-4-(4-(2-methyloxazol-4-yl)benzyl)-6-(1H-pyrazol-1-yl)picolinamide], in assay [1], the concentration for a half-maximal effect (EC50) turned out to be 1.97 µM and the Emax worked out at 88%. In assay [2], the EC50 is above 10 µM and the Emax was below 5%.
`Cn1cc(-c2cc(Cc3ccc(-c4ccn(C)n4)cc3)cc(C(=O)N[C@H]3CCCC[C@@H]3O)n2)cn1` [Compound 40, N-((1S,2S)-2-hydroxycyclohexyl)-4-(4-(1-methyl-1H-pyrazol-3-yl)benzyl)-6-(1-methyl-1H-pyrazol-4-yl)picolinamide]: the values for the EC50 in assay [1] and in assay [2] were 9.44 µM and above 10 µM, respectively. Moreover, the Emax was 57% in assay [1] and below 5% in assay [2].
With `Cc1nc(-c2ccc(Cc3cc(C(=O)N[C@H]4CC[C@@H]4O)nc(-n4cccn4)c3)cc2)co1` [Compound 25, N-((1S,2S)-2-hydroxycyclobutyl)-4-(4-(2-methyloxazol-4-yl)benzyl)-6-(1H-pyrazol-1-yl)picolinamide], the maximal response (Emax) in assay [1] amounted to 40%. In assay [2], the EC50 is above 10 µM and the Emax is below 5%.
Take `Cc1c(Cc2ccc(-n3cccn3)cc2)cc(C(=O)NC2CCOCC2(C)C)nc1-c1ccn(C)n1` (centres unmarked) [Compound 64, 4-(4-(1H-pyrazol-1-yl)benzyl)-N-(3,3-dimethyltetrahydro-2H-pyran-4-yl)-5-methyl-6-(1-methyl-1H-pyrazol-3-yl)picolinamide]: in assay [1], the EC50 was 2.89 µM and the Emax amounted to 91%. In assay [2], the EC50 was above 10 µM and the Emax is below 5%.
Turning to `Cc1nc(-c2ccc(Cc3cc(C(=O)NC4CCOCC4)nc(-n4cccn4)c3C)cc2)co1` [Compound 51, 5-methyl-4-(4-(2-methyloxazol-4-yl)benzyl)-6-(1H-pyrazol-1-yl)-N-(tetrahydro-2H-pyran-4-yl)picolinamide], the Emax in assay [1] came to 69%. In assay [2], the EC50 was above 10 µM and the Emax was below 5%.
Turning to `Cc1c(Cc2ccc(-n3cccn3)cc2)cc(C(=O)NCC2CCOCC2)nc1-c1ccn(C)n1` [Compound 61, 4-(4-(1H-pyrazol-1-yl)benzyl)-5-methyl-6-(1-methyl-1H-pyrazol-3-yl)-N-((tetrahydro-2H-pyran-4-yl)methyl)picolinamide], the Emax is 64% in assay [1] and below 5% in assay [2]. Besides, the EC50 in assay [2] was above 10 µM.
Regarding `Cn1ccc(-c2ccc(Cc3cc(C(=O)N[C@H]4CCCC[C@@H]4O)nc(-n4cccn4)c3)cc2)n1` [Compound 29, N-((1S,2S)-2-hydroxycyclohexyl)-4-(4-(1-methyl-1H-pyrazol-3-yl)benzyl)-6-(1H-pyrazol-1-yl)picolinamide], in assay [1], the concentration giving a half-maximal response (EC50) was determined as 2.1 µM and the Emax was found to be 73%. Further, in assay [2], the EC50 was above 10 µM and the Emax is below 5%.
As to `Cc1c(Cc2ccc(-c3ccn(C)n3)cc2)cc(C(=O)NC2CCOCC2)nc1-c1ccn(C)n1` [Compound 1, 5-methyl-6-(1-methyl-1H-pyrazol-3-yl)-4-(4-(1-methyl-1H-pyrazol-3-yl)benzyl)-N-(tetrahydro-2H-pyran-4-yl)picolinamide], in assay [1], the 50% effective concentration (EC50) turned out to be 8.72 µM and the Emax is 85%. In addition, in assay [2], the EC50 is above 10 µM and the maximal response (Emax) is below 5%.
